According to ChEMBL document CHEMBL4024727, “Synthesis and antimycobacterial screening of new thiazolyl-oxazole derivatives” (Eur J Med Chem, 2017):
Converted amounts (≈) assume the structure as drawn.

Key:
HeLa = experiment: (§1) Growth inhibition of human HeLa cells by MTT assay; format: cell-based; conditions: hela
A549 = experiment: (§2) Growth inhibition of human A549 cells by MTT assay; format: cell-based; conditions: a549
PANC-1 = experiment: (§3) Growth inhibition of human PANC1 cells by MTT assay; format: cell-based; conditions: panc-1
[1] = tested on: Mycobacterium tuberculosis; experiment: Growth inhibition of Mycobacterium tuberculosis H37Ra ATCC 25177 at 30 ug/ml by XTT dye based two-fold dilution method relative to control; format: functional; conditions: read-out: GI
[2] = tested on: Mycobacterium tuberculosis; experiment: Growth inhibition of Mycobacterium tuberculosis H37Ra ATCC 25177 at 10 ug/ml by XTT dye based two-fold dilution method relative to control; format: functional; conditions: read-out: GI
[3] = tested on: Mycobacterium tuberculosis; experiment: Growth inhibition of Mycobacterium tuberculosis H37Ra ATCC 25177 at 3 ug/ml by XTT dye based two-fold dilution method relative to control; format: functional; conditions: read-out: GI
[4] = tested on: Mycobacterium tuberculosis; experiment: Growth inhibition of Mycobacterium bovis BCG ATCC 35743 at 30 ug/ml by nitrate reductase based two-fold dilution assay relative to control; format: functional; conditions: BCG str. ATCC 35743, read-out: GI
[5] = tested on: Mycobacterium tuberculosis; experiment: Growth inhibition of Mycobacterium bovis BCG ATCC 35743 at 10 ug/ml by nitrate reductase based two-fold dilution assay relative to control; format: functional; conditions: BCG str. ATCC 35743, read-out: GI
[6] = tested on: Mycobacterium tuberculosis; experiment: Growth inhibition of Mycobacterium bovis BCG ATCC 35743 at 1 ug/ml by nitrate reductase based two-fold dilution assay relative to control; format: functional; conditions: BCG str. ATCC 35743, read-out: GI
[7] = tested on: Mycobacterium tuberculosis; experiment: Antitubercular activity against Mycobacterium tuberculosis H37Ra ATCC 25177 dormant stage by XTT dye based two-fold dilution method; format: functional
[8] = tested on: Mycobacterium tuberculosis; experiment: Antitubercular activity against Mycobacterium bovis BCG ATCC 35743 dormant stage by nitrate reductase based two-fold dilution assay; format: functional; conditions: BCG str. ATCC 35743
Escherichia coli [9] = experiment: Growth inhibition of Escherichia coli NCIM 2576 at 30 ug/ml measured after 8 hrs relative to control; format: functional; conditions: NCIM 2576, 8 h, read-out: GI
Escherichia coli [10] = experiment: Growth inhibition of Escherichia coli NCIM 2576 at 10 ug/ml measured after 8 hrs relative to control; format: functional; conditions: NCIM 2576, 8 h, read-out: GI
Escherichia coli [11] = experiment: Growth inhibition of Escherichia coli NCIM 2576 at 1 ug/ml measured after 8 hrs relative to control; format: functional; conditions: NCIM 2576, 8 h, read-out: GI
Pseudomonas fluorescens [12] = experiment: Growth inhibition of Pseudomonas fluorescens NCIM 2059 at 30 ug/ml measured after 8 hrs relative to control; format: functional; conditions: NCIM 2059, 8 h, read-out: GI
Pseudomonas fluorescens [13] = experiment: Growth inhibition of Pseudomonas fluorescens NCIM 2059 at 10 ug/ml measured after 8 hrs relative to control; format: functional; conditions: NCIM 2059, 8 h, read-out: GI
Pseudomonas fluorescens [14] = experiment: Growth inhibition of Pseudomonas fluorescens NCIM 2059 at 1 ug/ml measured after 8 hrs relative to control; format: functional; conditions: NCIM 2059, 8 h, read-out: GI
Staphylococcus aureus [15] = experiment: Growth inhibition of Staphylococcus aureus NCIM 2602 at 30 ug/ml measured after 12 hrs relative to control; format: functional; conditions: NCIM 2602, 12 h, read-out: GI
Staphylococcus aureus [16] = experiment: Growth inhibition of Staphylococcus aureus NCIM 2602 at 10 ug/ml measured after 12 hrs relative to control; format: functional; conditions: NCIM 2602, 12 h, read-out: GI
Staphylococcus aureus [17] = experiment: Growth inhibition of Staphylococcus aureus NCIM 2602 at 1 ug/ml measured after 12 hrs relative to control; format: functional; conditions: NCIM 2602, 12 h, read-out: GI
Bacillus subtilis [18] = experiment: Growth inhibition of Bacillus subtilis NCIM 2162 at 30 ug/ml measured after 12 hrs relative to control; format: functional; conditions: NCIM 2162, 12 h, read-out: GI
Bacillus subtilis [19] = experiment: Growth inhibition of Bacillus subtilis NCIM 2162 at 10 ug/ml measured after 12 hrs relative to control; format: functional; conditions: NCIM 2162, 12 h, read-out: GI
Bacillus subtilis [20] = experiment: Growth inhibition of Bacillus subtilis NCIM 2162 at 1 ug/ml measured after 12 hrs relative to control; format: functional; conditions: NCIM 2162, 12 h, read-out: GI
Escherichia coli [21] = experiment: Antibacterial activity against Escherichia coli NCIM 2576 measured after 8 hrs; format: functional; conditions: NCIM 2576, 8 h
Pseudomonas fluorescens [22] = experiment: Antibacterial activity against Pseudomonas fluorescens NCIM 2059 measured after 8 hrs; format: functional; conditions: NCIM 2059, 8 h
Staphylococcus aureus [23] = experiment: Antibacterial activity against Staphylococcus aureus NCIM 2602 measured after 12 hrs; format: functional; conditions: NCIM 2602, 12 h
Bacillus subtilis [24] = experiment: Antibacterial activity against Bacillus subtilis NCIM 2162 measured after 12 hrs; format: functional; conditions: NCIM 2162, 12 h
[25] = as §1; format: cell-based; conditions: HeLa cells
[26] = as §2; format: cell-based; conditions: A549 cells
[27] = as §3; format: cell-based, PANC-1; conditions: PANC-1 cells

Compound	GI90 (HeLa) [µg/mL]	GI90 (A549) [µg/mL]	GI90 (PANC-1) [µg/mL]	inhibition of growth at 30 µg/mL [1] [%]	inhibition of growth at 10 µg/mL [2] [%]	inhibition of growth at 3 µg/mL [3] [%]	inhibition of growth at 30 µg/mL [4] [%]	inhibition of growth at 10 µg/mL [5] [%]	inhibition of growth at 1 µg/mL [6] [%]	IC50 [7] [µM]	MIC90 [7] [µM]	IC50 [8] [µM]	MIC90 [8] [µM]	inhibition of growth at 30 µg/mL (Escherichia coli [9]) [%]	inhibition of growth at 10 µg/mL (Escherichia coli [10]) [%]	inhibition of growth at 1 µg/mL (Escherichia coli [11]) [%]	inhibition of growth at 30 µg/mL (Pseudomonas fluorescens [12]) [%]	inhibition of growth at 10 µg/mL (Pseudomonas fluorescens [13]) [%]	inhibition of growth at 1 µg/mL (Pseudomonas fluorescens [14]) [%]	inhibition of growth at 30 µg/mL (Staphylococcus aureus [15]) [%]	further results
CC(=O)O[C@H]1C(=O)[C@@]2(C)[C@H]([C@H](OC(=O)c3ccccc3)[C@]3(O)C[C@H](OC(=O)[C@H](O)[C@@H](NC(=O)c4ccccc4)c4ccccc4)C(C)=C1C3(C)C)[C@]1(OC(C)=O)CO[C@@H]1C[C@@H]2O [PACLITAXEL]	0.075 (≈ 0.0878 µM)	0.0706 (≈ 0.0827 µM)	5.715 (≈ 6.69 µM)	–	–	–	–	–	–	–	–	–	–	–	–	–	–	–	–	–	–
Cc1nc(-c2ccc(F)cc2)oc1-c1csc(Cc2ccc(Cl)cc2)n1	–	–	–	39	25	9	42	32	24	> 100	> 100	> 100	> 100	21	16.1	7.55	20.9	20.1	4.37	21.1	inhibition of growth at 10 µg/mL (Staphylococcus aureus [16]): 14.1%; inhibition of growth at 1 µg/mL (Staphylococcus aureus [17]): 5.76%; inhibition of growth at 30 µg/mL (Bacillus subtilis [18]): 27.6%; inhibition of growth at 10 µg/mL (Bacillus subtilis [19]): 13.9%; inhibition of growth at 1 µg/mL (Bacillus subtilis [20]): 9.95%; MIC (Escherichia coli [21]): > 100 µM; MIC (Pseudomonas fluorescens [22]): > 100 µM; MIC (Staphylococcus aureus [23]): > 100 µM; MIC (Bacillus subtilis [24]): > 100 µM
Cc1nc(-c2ccc(F)cc2)oc1-c1csc(-c2ccccc2)n1	–	–	–	31	13	13	33	32	28	> 100	> 100	> 100	> 100	50.7	47.8	21.3	53.1	41.9	22.4	58.8	inhibition of growth at 10 µg/mL (Staphylococcus aureus [16]): 40.7%; inhibition of growth at 1 µg/mL (Staphylococcus aureus [17]): 24%; inhibition of growth at 30 µg/mL (Bacillus subtilis [18]): 53.3%; inhibition of growth at 10 µg/mL (Bacillus subtilis [19]): 47.8%; inhibition of growth at 1 µg/mL (Bacillus subtilis [20]): 21%; MIC (Escherichia coli [21]): > 100 µM; MIC (Pseudomonas fluorescens [22]): > 100 µM; MIC (Staphylococcus aureus [23]): > 100 µM; MIC (Bacillus subtilis [24]): > 100 µM
CO[C@H]1/C=C/O[C@@]2(C)Oc3c(C)c(O)c4c(O)c(c(/C=N/N5CCN(C)CC5)c(O)c4c3C2=O)NC(=O)/C(C)=C\C=C\[C@H](C)[C@H](O)[C@@H](C)[C@@H](O)[C@@H](C)[C@H](OC(C)=O)[C@@H]1C [RIFAMPIN]	> 100	> 100	> 100	99.5	98	96.4	99	96.8	94.6	0.0024	0.91 (≈ 0.749 µg/mL)	0.04	0.98 (≈ 0.806 µg/mL)	–	–	–	–	–	–	–	GI50 [25]: > 100 µg/mL; GI50 [26]: > 100 µg/mL; GI50 [27]: > 100 µg/mL
